Among the data in ChEMBL document CHEMBL1156934, “Synthesis and SAR of thiazolidinedione derivatives as 15-PGDH inhibitors” (Bioorg Med Chem, 2010) are IC50 values, retold here.

The test deals with T1, 15-hydroxyprostaglandin dehydrogenase [NAD(+)] (Homo sapiens, UniProt P15428).
T1 sequence (P15428 whole entry): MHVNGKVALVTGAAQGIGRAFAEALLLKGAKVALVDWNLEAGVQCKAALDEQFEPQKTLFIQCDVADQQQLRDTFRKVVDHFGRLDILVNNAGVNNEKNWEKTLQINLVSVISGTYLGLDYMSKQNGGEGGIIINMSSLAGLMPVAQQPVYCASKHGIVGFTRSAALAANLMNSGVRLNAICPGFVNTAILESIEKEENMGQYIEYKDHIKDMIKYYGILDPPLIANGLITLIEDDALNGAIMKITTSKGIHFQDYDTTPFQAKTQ
Description: Inhibition of human 15PGDH expressed in Escherichia coli BL-21 by fluorescence spectrophotometry.

Regarding `O=C1N=C(O)S/C1=C\c1ccc(OCCc2cccs2)cc1`, the midpoint of inhibition, the IC50, lay at 31 nM.

On to `O=C1N=C(O)S/C1=C\c1ccc(OCCNC2CCCCC2)cc1`, for which the 50% inhibitory concentration (IC50) came to 3720 nM.

For the compound `Cc1ncsc1CCOc1ccc(/C=C2\SC(O)=NC2=O)cc1`, the midpoint of inhibition, the IC50, lay at 636 nM.

`Cc1ccc(COc2ccc(/C=C3\SC(O)=NC3=O)cc2)cc1` yielded an IC50 of 232 nM.

The compound `O=C1NC(=O)/C(=C/c2ccc(OCCC3CCCCO3)cc2)S1` (stereo unspecified) yielded a half-maximal inhibitory concentration (IC50) of 750 nM.

On to `O=C1NC(=O)/C(=C/c2ccc(OCc3cccs3)cc2)S1`, for which the IC50 worked out at 287 nM.

For `O=C1N=C(O)S/C1=C\c1ccc(OCc2ccsc2)cc1`, the IC50 amounted to 429 nM.

On to `O=C1NC(=O)/C(=C/c2ccc(OCCC3CCCC3)cc2)S1`, for which the concentration for half-maximal inhibition (IC50) came out at 116 nM.

`O=C1S/C(=C\c2ccc(OCCC3CCCCC3)cc2)C(=O)N1CCO` displayed a half-inhibitory concentration (IC50) of 526 nM.

Take `O=C1NC(=O)/C(=C\c2ccc(OCC3COc4ccccc4O3)cc2)S1` (stereo unspecified): the IC50 is 172 nM.

`O=C1NC(=O)/C(=C/c2ccc(OCCN3CCOCC3)cc2)S1` registered a half-maximal inhibitory concentration (IC50) of 713 nM.

`CC(C)OCCOc1ccc(/C=C2\SC(O)=NC2=O)cc1` showed a half-maximal inhibitory concentration (IC50) of 1250 nM.

`O=C1N=C(O)S/C1=C\c1ccc(OCCc2ccccn2)cc1` came in with an IC50 of 660 nM.

The compound `CC1CCC(COc2ccc(/C=C3\SC(O)=NC3=O)cc2)CC1` (stereo unspecified) gave a concentration for half-maximal inhibition (IC50) of 52 nM.

As to `COC(=O)C1CCC(COc2ccc(/C=C3\SC(=O)NC3=O)cc2)CC1` (stereo unspecified), the concentration for half-maximal inhibition (IC50) came out at 620 nM.

Consider `O=C1NC(=O)/C(=C\c2ccc(OCc3ccc(-c4ccccc4)cc3)cc2)S1`, for which the half-maximal inhibitory concentration (IC50) was found to be 814 nM.

`O=C1N=C(O)S/C1=C\c1ccc(OCCN2CCS(=O)(=O)CC2)cc1` returned an IC50 of 274 nM.

Compound `O=C1N=C(O)S/C1=C\c1ccc(OCCN2CCCCC2)cc1` registered an IC50 of 1440 nM.

On to `O=C1N=C(O)S/C1=C\c1ccc(OCCCN2CCS(=O)(=O)CC2)cc1`, for which the half-inhibitory concentration (IC50) was 1960 nM.

As to `O=C1NC(=O)/C(=C/c2ccc(OCc3ccco3)cc2)S1`, half-maximal inhibition (IC50) required 893 nM.

The compound `O=C1NC(=O)/C(=C/c2ccc(OCCC3CCCCC3)cc2)N1` returned an IC50 of 865 nM.

`O=C1N=C(O)S/C1=C\c1ccc(OCc2ccc3c(c2)OCO3)cc1` returned an IC50 of 252 nM.

With `COc1ccc(COc2ccc(/C=C3\SC(=O)NC3=O)cc2)cc1`, the IC50 was determined as 529 nM.

Take `O=C1C/C(=C\c2ccc(OCCC3CCCCC3)cc2)C(=O)N1`: the 50% inhibitory concentration (IC50) turned out to be 3790 nM.

With `O=C1NC(=O)/C(=C/c2ccc(OCCc3ccsc3)cc2)S1`, 60 nM corresponded to half-maximal inhibition (IC50).

The compound `O=C1NC(=O)/C(=C/c2ccc(OCC3CCCC3)cc2)S1` displayed an IC50 of 45 nM.
